Measurements reported in ChEMBL document CHEMBL1201862, “PubChem BioAssay data set” (2004).
Calls of active or inactive are those of the source.

Legend:
A-375 [1] = assay: MITF: Counter assay: A375 proliferation Measured in Cell-Based System Using Plate Reader - 2084-03_Inhibitor_Dose_DryPowder_Activity. [Related pubchem assays (depositor defined):AID488944]; format: functional; settings: Homo sapiens
A-375 [2] = assay: A375 melanoma cell viability reduction, dose response, counter-screen for MITF modulator project, cherry-pick samples, set 2 (AID 540335); format: functional, cell-based; settings: Homo sapiens
CAAX prenyl protease 2 [3] = target: CAAX prenyl protease 2 (Homo sapiens, UniProt Q9Y256); assay: human Rce1 protease inhibitors, dose response, biochemical, yeast membranes, quenched-peptide fluorescence, cherry-pick (AID 588849)
CAAX prenyl protease 1 = CAAX prenyl protease 1 (Saccharomyces cerevisiae S288c, UniProt P47154); assay: Ste24 protease inhibitors, dose response, biochemical, S. cerevisiae, plate reader, cherry-pick (AID 488815)
CAAX prenyl protease 2 [4] = target: T1, CAAX prenyl protease 2 (Saccharomyces cerevisiae S288c, UniProt Q03530); format: biochemical
T1 sequence (Q03530 whole entry): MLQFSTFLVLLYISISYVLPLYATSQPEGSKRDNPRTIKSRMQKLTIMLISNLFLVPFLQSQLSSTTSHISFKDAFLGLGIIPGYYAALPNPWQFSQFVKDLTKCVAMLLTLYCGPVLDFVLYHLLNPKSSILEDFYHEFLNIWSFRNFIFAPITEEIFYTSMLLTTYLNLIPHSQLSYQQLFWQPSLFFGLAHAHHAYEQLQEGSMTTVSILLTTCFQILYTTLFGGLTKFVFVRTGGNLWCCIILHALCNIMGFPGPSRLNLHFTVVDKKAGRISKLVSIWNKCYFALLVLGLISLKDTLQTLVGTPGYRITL

[5] = target: T2, Dual specificity protein phosphatase 6 (Rattus norvegicus, UniProt Q64346)
T2 sequence (Q64346 whole entry): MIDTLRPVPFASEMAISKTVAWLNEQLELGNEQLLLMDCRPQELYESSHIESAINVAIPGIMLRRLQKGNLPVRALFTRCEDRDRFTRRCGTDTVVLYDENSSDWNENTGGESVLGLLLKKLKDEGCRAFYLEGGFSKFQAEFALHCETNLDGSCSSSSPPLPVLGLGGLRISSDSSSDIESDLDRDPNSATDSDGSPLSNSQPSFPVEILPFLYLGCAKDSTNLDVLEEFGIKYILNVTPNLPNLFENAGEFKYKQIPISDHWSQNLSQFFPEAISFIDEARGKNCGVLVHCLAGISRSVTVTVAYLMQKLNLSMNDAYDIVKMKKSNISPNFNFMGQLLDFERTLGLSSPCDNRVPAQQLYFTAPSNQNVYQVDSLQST

[6] = target: Glyceraldehyde-3-phosphate dehydrogenase (Homo sapiens, UniProt P04406)
[7] = target: T3, Tyrosine-protein phosphatase non-receptor type 7 (Homo sapiens, UniProt P35236); format: functional
T3 sequence (P35236 whole entry): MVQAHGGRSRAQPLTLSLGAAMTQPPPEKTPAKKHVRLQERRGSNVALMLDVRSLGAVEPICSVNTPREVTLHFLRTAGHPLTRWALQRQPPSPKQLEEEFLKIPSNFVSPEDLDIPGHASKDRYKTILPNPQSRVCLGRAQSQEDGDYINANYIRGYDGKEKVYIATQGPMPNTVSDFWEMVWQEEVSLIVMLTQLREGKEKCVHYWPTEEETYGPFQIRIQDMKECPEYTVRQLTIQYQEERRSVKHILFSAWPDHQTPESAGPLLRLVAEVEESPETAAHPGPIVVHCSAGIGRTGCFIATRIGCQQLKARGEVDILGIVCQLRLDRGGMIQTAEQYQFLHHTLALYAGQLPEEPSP

[8] = target: T2, Dual specificity protein phosphatase 6; format: functional
[9] = target: UDP-galactopyranose mutase (Mycobacterium tuberculosis, UniProt P9WIQ1); assay: Inhibitors of Mycobacterium tuberculosis UDP-galactopyranose mutase (UGM) enzyme Measured in Biochemical System Using Plate Reader - 2105-02_Inhibitor_Dose_CherryPick_Activity. [Related pubchem assays (depositor defined):AID504439]
[10] = target: T4, Zinc finger protein mex-5 (Caenorhabditis elegans, UniProt Q9XUB2); assay: MEX-5/TCR-2 RNA interaction inhibitors, dose response, biochemical, C. elegans, fluorescence polarization (AID 1960)
T4 sequence (Q9XUB2 whole entry): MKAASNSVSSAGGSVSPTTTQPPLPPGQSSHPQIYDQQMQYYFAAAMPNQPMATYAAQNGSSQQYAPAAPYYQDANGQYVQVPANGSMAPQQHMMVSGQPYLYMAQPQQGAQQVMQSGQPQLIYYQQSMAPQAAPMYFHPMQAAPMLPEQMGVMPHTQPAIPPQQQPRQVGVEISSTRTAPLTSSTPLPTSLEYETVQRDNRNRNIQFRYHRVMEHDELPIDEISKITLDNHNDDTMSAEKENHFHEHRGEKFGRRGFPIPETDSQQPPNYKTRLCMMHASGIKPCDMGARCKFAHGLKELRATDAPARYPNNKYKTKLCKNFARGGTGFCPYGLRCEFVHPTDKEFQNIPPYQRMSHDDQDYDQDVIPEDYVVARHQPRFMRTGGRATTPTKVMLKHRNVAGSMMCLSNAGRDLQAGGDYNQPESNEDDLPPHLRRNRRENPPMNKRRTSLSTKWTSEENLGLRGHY

[11] = target: T5, Corticotropin-releasing factor receptor 2/Corticotropin-releasing factor-binding protein (Homo sapiens, UniProt P24387+Q13324); assay: activators of CRF receptor 2 with binding protein – uHTS hits, confirmation (AID 602473); format: functional; settings: read-out: EC50_Mean
T5 sequence (Q13324 whole entry): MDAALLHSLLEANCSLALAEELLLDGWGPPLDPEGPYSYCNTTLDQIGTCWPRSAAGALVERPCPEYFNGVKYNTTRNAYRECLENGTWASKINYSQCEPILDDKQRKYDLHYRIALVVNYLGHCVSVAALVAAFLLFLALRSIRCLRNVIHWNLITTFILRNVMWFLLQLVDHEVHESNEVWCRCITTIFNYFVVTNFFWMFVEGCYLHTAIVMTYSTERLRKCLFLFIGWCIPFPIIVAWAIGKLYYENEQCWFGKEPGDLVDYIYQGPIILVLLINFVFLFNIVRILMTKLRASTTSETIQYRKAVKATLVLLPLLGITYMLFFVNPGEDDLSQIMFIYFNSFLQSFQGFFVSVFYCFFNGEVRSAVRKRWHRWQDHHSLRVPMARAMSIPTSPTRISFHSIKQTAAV
T5 sequence (P24387 whole entry): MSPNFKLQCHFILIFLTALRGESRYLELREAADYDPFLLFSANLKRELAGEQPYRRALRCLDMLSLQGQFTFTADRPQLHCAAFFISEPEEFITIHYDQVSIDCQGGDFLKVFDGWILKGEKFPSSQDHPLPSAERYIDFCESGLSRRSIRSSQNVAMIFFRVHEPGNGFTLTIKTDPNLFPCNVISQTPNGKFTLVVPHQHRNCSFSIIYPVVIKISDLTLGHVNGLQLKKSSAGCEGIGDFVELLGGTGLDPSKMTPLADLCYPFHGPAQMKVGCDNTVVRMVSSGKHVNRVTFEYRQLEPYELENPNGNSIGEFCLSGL

[12] = target: T6, RNA-binding protein pos-1 (Caenorhabditis elegans, UniProt G5EF15); assay: inhibitors of POS-1/mex-3 RNA binding, dose response, biochemical, fluorescence polarization (AID 1964);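 further: purified POS-1 fused to maltose binding protein made in E. coli; potency of compounds blocking POS-1 binding to fluorescent RNA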
T6 sequence (G5EF15 whole entry): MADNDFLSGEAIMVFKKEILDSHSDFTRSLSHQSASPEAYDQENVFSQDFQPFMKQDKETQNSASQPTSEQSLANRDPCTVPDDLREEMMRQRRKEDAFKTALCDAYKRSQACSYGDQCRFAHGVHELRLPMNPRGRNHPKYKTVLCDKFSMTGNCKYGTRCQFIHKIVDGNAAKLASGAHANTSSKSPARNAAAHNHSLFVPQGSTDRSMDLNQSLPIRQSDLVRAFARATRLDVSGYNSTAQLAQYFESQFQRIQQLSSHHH

[13] = target: T7, Endoribonuclease toxin MazF (Escherichia coli K-12, UniProt P0AE70); assay: fluorescent RNA oligo signal without MazF, dose response, counter-screen for MazEF activator project, biochemical, fluorescence, single-stranded RNase substrate (AID 588502); format: functional
T7 sequence (P0AE70 whole entry): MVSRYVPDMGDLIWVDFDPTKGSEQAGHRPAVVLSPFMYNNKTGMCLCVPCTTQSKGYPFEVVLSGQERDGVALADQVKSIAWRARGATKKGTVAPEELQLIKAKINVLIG

[14] = target: T7, Endoribonuclease toxin MazF; assay: MazF toxin RNase activators, dose response, biochemical, fluorescence, single-stranded RNA substrate, uHTS hits (AID 588481); format: functional
[15] = target: T8, Short transient receptor potential channel 4 (Mus musculus, UniProt Q9QUQ5); assay: mouse TRPC4 channel activators, dose response, cell-based, HEK293 TRPC4/mu-opioid, Fluo-4 calcium (AID 434937); format: functional
T8 sequence (Q9QUQ5 whole entry): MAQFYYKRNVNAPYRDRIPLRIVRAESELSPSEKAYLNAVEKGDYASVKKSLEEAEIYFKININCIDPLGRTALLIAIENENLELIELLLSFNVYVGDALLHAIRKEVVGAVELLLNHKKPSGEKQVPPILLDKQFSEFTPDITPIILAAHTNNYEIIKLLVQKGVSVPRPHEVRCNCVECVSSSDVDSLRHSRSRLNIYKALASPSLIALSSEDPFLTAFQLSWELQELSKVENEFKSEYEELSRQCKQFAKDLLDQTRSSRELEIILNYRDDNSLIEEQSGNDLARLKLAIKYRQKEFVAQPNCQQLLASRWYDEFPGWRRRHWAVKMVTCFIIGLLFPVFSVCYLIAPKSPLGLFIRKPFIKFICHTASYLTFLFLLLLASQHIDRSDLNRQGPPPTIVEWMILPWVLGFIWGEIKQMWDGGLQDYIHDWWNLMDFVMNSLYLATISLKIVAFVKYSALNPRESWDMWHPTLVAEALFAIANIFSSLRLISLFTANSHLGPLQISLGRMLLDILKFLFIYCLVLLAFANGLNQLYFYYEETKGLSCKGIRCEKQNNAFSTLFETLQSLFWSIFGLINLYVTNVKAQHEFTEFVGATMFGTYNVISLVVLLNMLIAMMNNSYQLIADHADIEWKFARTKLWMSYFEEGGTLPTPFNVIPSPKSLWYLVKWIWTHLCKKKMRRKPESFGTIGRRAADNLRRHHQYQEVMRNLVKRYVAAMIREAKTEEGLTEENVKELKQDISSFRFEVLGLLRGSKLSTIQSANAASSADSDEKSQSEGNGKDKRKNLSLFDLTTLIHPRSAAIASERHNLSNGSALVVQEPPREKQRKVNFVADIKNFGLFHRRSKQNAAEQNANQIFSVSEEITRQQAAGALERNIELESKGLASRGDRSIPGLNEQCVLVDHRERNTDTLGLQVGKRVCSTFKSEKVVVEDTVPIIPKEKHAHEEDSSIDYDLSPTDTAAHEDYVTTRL

[16] = target: T8, Short transient receptor potential channel 4; assay: mouse TRPC4 channel inhibitors, dose response, cell-based, HEK293 TRPC4/mu-opioid, Fluo-4 calcium (AID 434942); format: functional;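 further: potency of inhibitors blocking the TRPC4 calcium response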
[17] = cytotoxicity in HEK-293T NF-kB-Luc cells, dose response, cytotoxicity control for B/T-cell NF-kB inhibitor project, cell-based, uHTS hits (AID 489019); format: functional;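 further: IC50 reflects cytotoxicity as loss of cell viability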
INS1 = assay: beta cell apoptosis inhibitors, cytokine rescue, dose response, luminescence, retest (AID 449756); format: functional, cell-based; settings: Rattus norvegicus;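 further: cell death triggered by IL-1 beta plus TNF-alpha plus IFN-gamma mixture; protective hits raise ATP signal compared with cytokine alone wells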
Jurkat = assay: antigen receptor-induced NF-kB inhibitors, dose response, Jurkat, luciferase reporter, luminescence, B- and T-cell (AID 489004); format: functional, cell-based; settings: Homo sapiens;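 further: NF-kB luciferase reporter Jurkat cells stimulated with PMA plus ionomycin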
[18] = inhibitors of Trypanosoma cruzi host-cell infection, confirmation, beta-gal luminescence, NIH3T3 host cells (AID 2630); format: functional, cell-based; settings: Mus musculus

Sequence of CAAX prenyl protease 1 (P47154 whole entry): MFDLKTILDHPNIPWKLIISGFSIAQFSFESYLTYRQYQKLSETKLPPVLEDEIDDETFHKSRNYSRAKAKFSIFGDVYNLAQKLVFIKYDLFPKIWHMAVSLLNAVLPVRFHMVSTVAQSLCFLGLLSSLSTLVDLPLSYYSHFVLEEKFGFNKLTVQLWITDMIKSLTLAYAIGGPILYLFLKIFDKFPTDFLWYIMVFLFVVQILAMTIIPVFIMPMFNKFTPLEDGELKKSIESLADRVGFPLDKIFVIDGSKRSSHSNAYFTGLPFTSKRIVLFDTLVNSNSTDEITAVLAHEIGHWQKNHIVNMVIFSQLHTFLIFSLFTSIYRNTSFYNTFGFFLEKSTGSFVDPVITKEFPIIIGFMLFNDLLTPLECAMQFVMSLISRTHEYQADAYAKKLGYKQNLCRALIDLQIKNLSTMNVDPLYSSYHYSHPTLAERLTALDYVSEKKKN
Sequence of CAAX prenyl protease 2 (Homo sapiens, UniProt Q9Y256) (Q9Y256 whole entry): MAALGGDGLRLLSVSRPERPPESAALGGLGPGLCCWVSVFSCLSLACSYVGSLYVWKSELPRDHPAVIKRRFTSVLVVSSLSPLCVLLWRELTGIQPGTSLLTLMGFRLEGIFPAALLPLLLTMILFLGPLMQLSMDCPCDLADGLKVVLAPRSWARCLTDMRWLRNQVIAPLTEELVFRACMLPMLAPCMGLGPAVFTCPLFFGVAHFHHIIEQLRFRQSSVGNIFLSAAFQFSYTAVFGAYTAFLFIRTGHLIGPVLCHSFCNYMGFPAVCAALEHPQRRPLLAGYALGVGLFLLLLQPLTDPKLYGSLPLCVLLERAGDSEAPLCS
Sequence of Glyceraldehyde-3-phosphate dehydrogenase (P04406 whole entry): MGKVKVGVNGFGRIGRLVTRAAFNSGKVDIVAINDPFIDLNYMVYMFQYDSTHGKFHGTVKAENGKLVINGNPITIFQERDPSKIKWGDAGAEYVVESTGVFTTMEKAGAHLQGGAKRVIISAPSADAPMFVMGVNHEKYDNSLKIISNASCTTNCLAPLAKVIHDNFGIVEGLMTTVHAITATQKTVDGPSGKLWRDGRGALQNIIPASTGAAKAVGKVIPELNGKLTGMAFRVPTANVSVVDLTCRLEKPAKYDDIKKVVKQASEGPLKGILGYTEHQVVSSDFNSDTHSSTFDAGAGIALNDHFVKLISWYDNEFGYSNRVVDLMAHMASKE
Sequence of UDP-galactopyranose mutase (P9WIQ1 whole entry): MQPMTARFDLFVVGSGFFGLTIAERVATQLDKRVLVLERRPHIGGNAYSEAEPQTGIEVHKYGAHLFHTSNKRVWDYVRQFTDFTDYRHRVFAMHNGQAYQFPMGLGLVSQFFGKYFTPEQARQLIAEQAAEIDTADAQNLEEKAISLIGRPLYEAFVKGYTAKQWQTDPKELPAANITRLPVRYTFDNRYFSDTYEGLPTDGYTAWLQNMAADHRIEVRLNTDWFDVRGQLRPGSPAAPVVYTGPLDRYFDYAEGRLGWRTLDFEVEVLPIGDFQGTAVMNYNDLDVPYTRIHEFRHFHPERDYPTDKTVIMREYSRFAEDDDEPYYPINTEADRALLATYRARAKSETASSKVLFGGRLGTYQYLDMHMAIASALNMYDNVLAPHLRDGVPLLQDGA

SMILES: O=C(Nc1ccc2nn(-c3ccccc3)nc2c1)c1ccco1
- AC50 (A-375 [1]): > 35 µM (active)
- AC50 (A-375 [2]): > 35 µM (active)

SMILES: CCOC(=O)c1[nH]c2ccc(OC)cc2c1NC(=O)CN1CCC2(CC1)OCCO2
- AC50 (CAAX prenyl protease 2 [3]): 15.4 µM (active)
- AC50 (CAAX prenyl protease 1): 6.79 µM (active)
- AC50 (CAAX prenyl protease 2 [4]): 67.8 µM (active)

SMILES: Cc1ccc(-n2c(=O)[nH]c(=O)n([C@H](C(N)=O)C(C)C)c2=O)cc1
- IC50 [5]: > 100 µM (inactive)
- IC50 [6]: > 100 µM (not active)
- IC50 [7]: > 100 µM (not active)
- IC50 [8]: > 100 µM (inactive)

SMILES: O=C(Nc1ccc(Cl)cc1)OCc1ccccn1
- AC50 (A-375 [1]): > 35 µM (active)
- AC50 (A-375 [2]): > 35 µM (active)

SMILES: COc1ccc2nc3ccccc3nc2c1NC(=O)c1ccc(Cl)cc1Cl
- AC50 [9]: 171 µM (active)
- EC50 [10]: 3.71 µM (inconclusive)
- EC50 [11]: 6.99 µM (active)
- EC50 [12]: 3.15 µM (inconclusive)
- EC50 [13]: 27.6 µM (inactive)
- EC50 [14]: > 99 µM (inactive)

SMILES: O=C(C[n+]1cc2ccccc2c2ccccc21)c1ccccc1
- AC50 (CAAX prenyl protease 1): 10.2 µM (active)
- AC50 (CAAX prenyl protease 2 [4]): 5.91 µM (active)
- EC50 [15]: 4.22 µM (active)
- EC50 [16]: 3.76 µM (active)

SMILES: Cc1cc(Cl)c(S(=O)(=O)N2CCN(c3ccc(F)cc3)CC2)cc1OCC(=O)NC1CCCCC1
- IC50 [17]: > 80 µM (inactive)
- AC50 (INS1): 4.82 µM (active)
- IC50 (Jurkat): > 80 µM (inactive)

SMILES: Cc1ccc(NC(=O)CCC(=O)N/N=C/c2ccco2)c(C)c1
- EC50 [18]: 195 µM (inactive)

SMILES: O=S(=O)(O)c1cc2oc(-c3ccccc3)nc2c2ccccc12
- AC50 (CAAX prenyl protease 2 [3]): 1.35 µM (active)
